These results are taken from PubChem BioAssay (NCI).

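96-well plates; 48 h exposure; 5 concentrations. Endpoints by linear interpolation between flanking doses. Not reached: highest tested concentration assigned. Abbreviation: GI50, concentration required for 50% inhibition of growth. At the TGI there is no net growth.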

What all share (test): inhibition of tumour cell growth, NCI panel, 48 h
In assay [1] the test system is A498 renal.
The subject of assay [2] is A549 NSCLC.
The test system of assay [3] is ACHN renal.
Assay [4] has as its system CCRF-CEM leukemia.
Assay [5] deals with HS 578T breast.
The subject of assay [6] is HT29 colon.
For assay [7], the system named is LOX IMVI melanoma.
In assay [8] the test system is NCI-H23 lung.
For assay [9], the system named is SK-MEL-2 melanoma.
The subject of assay [10] is SNB-75 CNS.

On to `O=S(=O)(NCCNc1cc(-c2cn(-c3ccccc3)nc2-c2cccc(O)c2)ccn1)c1ccc(Br)cc1`, for which the GI50 in [1] was 1.45 µM; in assay [2], 3.6 µM; in assay [3] it was 3.33 µM; in [4], 2.1 µM; in assay [5] it was 2.35 µM; in assay [6], 2.17 µM. The GI50 was 1.71 µM in [7], 2.7 µM in assay [8], 2.3 µM in assay [9] and 2.03 µM in assay [10]. In addition, the TGI in [1] was determined as 5.47 µM; in [2], 15 µM; in [3] it was 15.2 µM; in assay [4], 6.06 µM; in assay [5] it was 7.71 µM; in assay [6] it was 5.04 µM. In addition, the TGI was 3.23 µM in assay [7], 11.4 µM in assay [8], 4.79 µM in [9] and 6.94 µM in assay [10].
Turning to `COc1ccc(C(=O)c2cc(C)c(OC)c(C)c2)c(OC)c1N(C(=O)CCl)C(=O)CCl`, the GI50 is 0.0244 µM in assay [1]; 0.0834 µM in assay [2]; 0.0773 µM in [3]; 0.166 µM in assay [4]; 0.0333 µM in [5]; 0.307 µM in [6]. Further, the GI50 in assay [7] was 0.0731 µM; in assay [8], 0.0696 µM; in assay [9], 0.0522 µM; in [10], 0.0274 µM. Further, the TGI is 0.103 µM in [1]; greater than 100 µM in assay [2]; 36.7 µM in [3]; greater than 37.8 µM in [4]; greater than 100 µM in assay [5]; 22.5 µM in [6]. Also, the TGI in assay [7] is 2.66 µM; in assay [8], 14.2 µM; in assay [9], 19.7 µM; in assay [10] it was 27.3 µM.
As to `CCCC(=O)Nc1c(I)cc(I)c(CC(CC)C(=O)O)c1I` (centres undefined), the GI50 in assay [1], in assay [2], in assay [3], in assay [4], in assay [5] and in assay [6] was greater than 100 µM throughout. The GI50 in assay [7], in assay [8], in assay [9] and in assay [10] was greater than 100 µM in each case. Also, the TGI in assay [1], in assay [2], in assay [3], in [4], in [5] and in [6] was greater than 100 µM in each case. Besides, the TGI in assay [7], in [8], in assay [9] and in [10] was greater than 100 µM each time.
For `COC(=O)CCCNC(=O)C(=O)c1c(O)c(O)c(C(C)C)c2cc(C)c(-c3c(C)cc4c(C(C)C)c(O)c(O)c(C(=O)C(=O)NCCCC(=O)OC)c4c3O)c(O)c12`, the GI50 was 1.36 µM in assay [1]; 0.255 µM in assay [2]; 0.21 µM in assay [3]; 0.331 µM in [4]; 0.975 µM in [5]; 0.542 µM in [6]. Moreover, the GI50 was 0.537 µM in [7], 0.363 µM in assay [8], 0.858 µM in [9] and 1.43 µM in assay [10]. In addition, the TGI in assay [1] was 14.3 µM; in [2] it was 4.01 µM; in assay [3], 4.09 µM; in assay [4] it was greater than 32.5 µM; in assay [5], 11.6 µM; in [6], 3.81 µM. Moreover, the TGI in assay [7] is 1.48 µM; in assay [8], 6.03 µM; in assay [9], 2.93 µM; in [10], 19.1 µM.
For the compound `CC(C)=CCc1c(O)c(C(=O)CC(C)C)c(O)c2c(-c3ccccc3)cc(=O)oc12`, the GI50 is 7.4 µM in [1]; 12 µM in assay [2]; 5.85 µM in assay [3]; 5.11 µM in assay [4]; 9.75 µM in [5]; 14.1 µM in assay [6]. Also, the GI50 in assay [7] was 15.6 µM; in assay [8], 6.84 µM; in [9] it was 6.18 µM; in assay [10], 9.27 µM. In addition, the TGI in [1] is 28.8 µM; in [2], greater than 50 µM; in assay [3] it was greater than 50 µM; in assay [4] it was greater than 50 µM; in assay [5], 49.9 µM; in assay [6] it was greater than 50 µM. Further, the TGI is greater than 50 µM in assay [7], greater than 50 µM in assay [8], 28.7 µM in assay [9] and 41.9 µM in assay [10].
For the compound `CCCCCC(=C/c1ccccc1)/C=N/N=C(N)N`, the GI50 in assay [1] is 0.621 µM; in assay [2], 1.73 µM; in assay [3] it was 1.69 µM; in [4], 2 µM; in assay [5], 1.8 µM; in assay [6] it was 1.58 µM. Also, the GI50 in assay [7] is 1.44 µM; in assay [8], 1.47 µM; in assay [9] it was 1.7 µM; in [10], 1.35 µM. The TGI in [1] is 1.99 µM; in assay [2], 3.23 µM; in assay [3], 3.28 µM; in [4], 5.04 µM; in [5], 4.18 µM; in assay [6] it was 3.27 µM. Moreover, the TGI in [7] was found to be 3.02 µM; in [8], 3.12 µM; in [9], 3.2 µM; in [10], 2.7 µM.
In the case of `CCN(CC)c1ccc(/C=N/NC(=O)c2ccccc2Nc2ccnc(C(F)(F)F)c2)c(O)c1`, the GI50 is 0.354 µM in [1]; 0.235 µM in assay [2]; 0.0834 µM in [3]; 0.055 µM in assay [4]; 1.11 µM in assay [5]; 0.362 µM in assay [6]. The GI50 in [7] was 0.0837 µM; in assay [8], 0.528 µM; in assay [9], 1.29 µM; in assay [10], 0.41 µM. Further, the TGI in assay [1] is greater than 32.9 µM; in assay [2], greater than 100 µM; in assay [3] it was greater than 24.6 µM; in assay [4], 1.35 µM; in [5], greater than 51.6 µM; in [6], greater than 100 µM. Moreover, the results for the TGI in assay [8], in assay [9] and in assay [10] were greater than 100 µM, 97.9 µM and greater than 100 µM, respectively.
As to `C[C@H](C(O)CC(=O)C(C)(C)O)[C@H]1CC[C@@]2(C)[C@@H]3CC[C@H]4C(C)(C)[C@@H](OC5OC(COC6OC(CO)C(O)C(O)C6O)C(O)C(O)C5O)CC[C@]4(C)C3=CC[C@]12C` (some centres undefined), the TGI in [1], in assay [2], in assay [3], in [4], in [5] and in assay [6] was greater than 100 µM throughout. The TGI in assay [7], in [8], in assay [9] and in assay [10] was greater than 100 µM throughout.
